Assay results reported in PMC7226205 (Biomolecules, 2020).

Legend:
RUVBL2 = biological target: T1, RUVBL2 (Homo sapiens, UniProt Q9Y230); assay: ATP/NADH coupled ATPase assay; format: biochemical
T1 construct: recombinant from E. coli BL21(DE3) pRIL

ScRvb2 = biological target: T2, ScRvb2 (Saccharomyces cerevisiae, UniProt Q12464); assay: ATP/NADH coupled ATPase assay; conditions: 10 µM protomer, pH 7.5, 37 °C
T2 construct: gene RVB2
T2 sequence (Q12464 whole entry): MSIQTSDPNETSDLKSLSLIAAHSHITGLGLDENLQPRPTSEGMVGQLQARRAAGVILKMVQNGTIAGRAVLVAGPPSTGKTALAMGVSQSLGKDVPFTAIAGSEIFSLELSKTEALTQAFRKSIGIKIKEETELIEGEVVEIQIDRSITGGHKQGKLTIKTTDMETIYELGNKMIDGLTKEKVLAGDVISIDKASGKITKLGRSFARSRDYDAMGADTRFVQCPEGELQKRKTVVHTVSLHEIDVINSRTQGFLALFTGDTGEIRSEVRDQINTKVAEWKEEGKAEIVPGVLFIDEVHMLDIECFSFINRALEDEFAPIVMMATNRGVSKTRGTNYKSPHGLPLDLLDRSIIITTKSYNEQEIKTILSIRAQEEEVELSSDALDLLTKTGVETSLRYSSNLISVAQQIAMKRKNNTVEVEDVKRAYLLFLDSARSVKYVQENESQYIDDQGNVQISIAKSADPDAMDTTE

T1 sequence (Q9Y230 whole entry): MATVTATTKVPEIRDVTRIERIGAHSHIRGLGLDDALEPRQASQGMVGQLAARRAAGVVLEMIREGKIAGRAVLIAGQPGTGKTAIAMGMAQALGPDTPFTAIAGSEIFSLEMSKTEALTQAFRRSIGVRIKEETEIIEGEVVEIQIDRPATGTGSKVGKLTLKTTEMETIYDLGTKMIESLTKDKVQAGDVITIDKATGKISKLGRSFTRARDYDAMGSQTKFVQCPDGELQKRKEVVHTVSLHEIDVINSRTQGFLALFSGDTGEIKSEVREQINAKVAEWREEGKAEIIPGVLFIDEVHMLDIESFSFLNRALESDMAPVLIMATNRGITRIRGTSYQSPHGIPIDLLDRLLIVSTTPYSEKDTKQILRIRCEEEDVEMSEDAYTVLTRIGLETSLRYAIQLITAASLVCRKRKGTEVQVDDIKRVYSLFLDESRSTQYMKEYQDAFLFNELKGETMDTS

## CNC(=O)c1cc(Oc2ccc(NC(=O)Nc3ccc(Cl)c(C(F)(F)F)c3)c(F)c2)ccn1 [regorafenib]
RUVBL2
  inhibition at 15 µM: ~40%

## CNC(=O)c1cc(Oc2ccc(NC(=O)Nc3ccc(Cl)c(C(F)(F)F)c3)cc2)ccn1 [sorafenib]
ScRvb2
  % inhibition at 30 μM: sorafenib can inhibit RUVBL2 from Saccharomyces cerevisiae (named ScRvb2) although less efficiently
